Measured values taken from patent publication US9492471B2, “Methods of treating a disease or disorder associated with Bruton'S Tyrosine Kinase” (Celgene Avilomics Research, Inc., priority 2013, dated 2016).
Read-outs that look alike come from different tables or passages of the source.

What was measured:
Assay in all cases: HotSpot kinase profiling
Type in all cases: biochemical
DMPK = molecular target: T1, DMPK (Homo sapiens, UniProt Q09013)
T1 construct: purchased Reaction Biology Corp
T1 sequence (Q09013 1-629): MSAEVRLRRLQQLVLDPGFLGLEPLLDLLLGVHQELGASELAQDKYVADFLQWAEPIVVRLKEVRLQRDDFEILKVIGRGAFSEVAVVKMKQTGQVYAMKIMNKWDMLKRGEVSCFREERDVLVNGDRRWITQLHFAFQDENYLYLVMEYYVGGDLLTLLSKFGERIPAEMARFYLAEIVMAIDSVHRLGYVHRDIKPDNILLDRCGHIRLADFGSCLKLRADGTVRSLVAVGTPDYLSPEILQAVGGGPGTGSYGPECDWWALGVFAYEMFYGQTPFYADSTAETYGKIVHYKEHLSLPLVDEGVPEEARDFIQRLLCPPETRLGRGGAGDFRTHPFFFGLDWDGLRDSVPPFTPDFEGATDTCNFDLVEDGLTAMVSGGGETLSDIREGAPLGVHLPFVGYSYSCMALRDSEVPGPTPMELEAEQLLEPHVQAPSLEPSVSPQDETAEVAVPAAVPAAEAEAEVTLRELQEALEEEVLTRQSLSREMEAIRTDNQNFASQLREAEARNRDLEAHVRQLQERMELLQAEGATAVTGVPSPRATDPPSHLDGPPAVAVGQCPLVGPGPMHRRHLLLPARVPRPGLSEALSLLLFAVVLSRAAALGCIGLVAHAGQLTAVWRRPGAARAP
Summary of the method: (§1)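 Radiometric kinase assay with P81 filter capture; each kinase was added to fresh substrate plus cofactors in reaction buffer and incubated 2 h at room temperature. Unreacted phosphate was washed off with 0.1% phosphoric acid before detection; percent inhibition is relative to DMSO control, averaged over replicates.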

DCAMKL2 = molecular target: T2, DCAMKL2 (Homo sapiens, UniProt Q8N568)
T2 construct: purchased Reaction Biology Corp
T2 sequence (Q8N568 1-766): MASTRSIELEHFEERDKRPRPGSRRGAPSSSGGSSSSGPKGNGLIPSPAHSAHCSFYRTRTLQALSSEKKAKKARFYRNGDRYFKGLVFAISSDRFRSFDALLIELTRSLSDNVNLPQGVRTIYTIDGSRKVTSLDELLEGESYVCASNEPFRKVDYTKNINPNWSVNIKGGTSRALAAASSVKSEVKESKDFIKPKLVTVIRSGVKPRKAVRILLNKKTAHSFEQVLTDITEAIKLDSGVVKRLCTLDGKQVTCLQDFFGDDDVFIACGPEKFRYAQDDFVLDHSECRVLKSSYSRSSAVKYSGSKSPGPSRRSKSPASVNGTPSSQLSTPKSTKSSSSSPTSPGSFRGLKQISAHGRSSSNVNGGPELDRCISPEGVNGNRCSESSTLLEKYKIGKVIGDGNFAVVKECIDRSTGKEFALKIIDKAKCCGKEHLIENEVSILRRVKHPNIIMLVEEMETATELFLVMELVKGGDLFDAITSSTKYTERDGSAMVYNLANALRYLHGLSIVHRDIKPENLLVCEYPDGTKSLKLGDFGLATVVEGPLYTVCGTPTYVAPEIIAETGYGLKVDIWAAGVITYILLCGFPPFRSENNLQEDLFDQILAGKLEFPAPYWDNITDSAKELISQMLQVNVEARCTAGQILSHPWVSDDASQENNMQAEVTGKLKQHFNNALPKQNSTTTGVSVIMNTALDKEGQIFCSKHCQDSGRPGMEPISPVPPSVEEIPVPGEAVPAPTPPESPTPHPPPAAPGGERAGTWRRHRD
Summary of the method: as §1

CDK4/cyclin D1 = molecular target: T3, CDK4/cyclin D1 (Homo sapiens, UniProt P11802)
T3 construct: purchased Reaction Biology Corp
T3 sequence (P11802 whole entry): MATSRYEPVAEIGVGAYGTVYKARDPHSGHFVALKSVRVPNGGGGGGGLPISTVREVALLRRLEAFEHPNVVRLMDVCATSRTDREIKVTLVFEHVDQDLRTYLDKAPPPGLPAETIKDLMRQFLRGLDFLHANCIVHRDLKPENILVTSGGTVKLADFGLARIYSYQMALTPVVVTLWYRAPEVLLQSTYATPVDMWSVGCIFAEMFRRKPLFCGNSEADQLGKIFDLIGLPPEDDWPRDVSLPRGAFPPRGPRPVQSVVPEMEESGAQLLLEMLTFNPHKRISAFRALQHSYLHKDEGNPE
T3 sequence (P24385 whole entry partner): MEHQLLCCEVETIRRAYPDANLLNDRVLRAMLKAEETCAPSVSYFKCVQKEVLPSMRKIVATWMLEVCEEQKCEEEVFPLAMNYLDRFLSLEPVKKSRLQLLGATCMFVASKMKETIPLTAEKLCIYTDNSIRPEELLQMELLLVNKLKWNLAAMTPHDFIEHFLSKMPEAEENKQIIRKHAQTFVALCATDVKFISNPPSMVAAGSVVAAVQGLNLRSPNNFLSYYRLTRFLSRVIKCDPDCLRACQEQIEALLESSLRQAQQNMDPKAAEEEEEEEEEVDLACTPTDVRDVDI
Summary of the method: as §1

CDC7/DBF4 = molecular target: T4, CDC7/DBF4 (Homo sapiens, UniProt O00311)
T4 construct: purchased Reaction Biology Corp
T4 sequence (O00311 whole entry): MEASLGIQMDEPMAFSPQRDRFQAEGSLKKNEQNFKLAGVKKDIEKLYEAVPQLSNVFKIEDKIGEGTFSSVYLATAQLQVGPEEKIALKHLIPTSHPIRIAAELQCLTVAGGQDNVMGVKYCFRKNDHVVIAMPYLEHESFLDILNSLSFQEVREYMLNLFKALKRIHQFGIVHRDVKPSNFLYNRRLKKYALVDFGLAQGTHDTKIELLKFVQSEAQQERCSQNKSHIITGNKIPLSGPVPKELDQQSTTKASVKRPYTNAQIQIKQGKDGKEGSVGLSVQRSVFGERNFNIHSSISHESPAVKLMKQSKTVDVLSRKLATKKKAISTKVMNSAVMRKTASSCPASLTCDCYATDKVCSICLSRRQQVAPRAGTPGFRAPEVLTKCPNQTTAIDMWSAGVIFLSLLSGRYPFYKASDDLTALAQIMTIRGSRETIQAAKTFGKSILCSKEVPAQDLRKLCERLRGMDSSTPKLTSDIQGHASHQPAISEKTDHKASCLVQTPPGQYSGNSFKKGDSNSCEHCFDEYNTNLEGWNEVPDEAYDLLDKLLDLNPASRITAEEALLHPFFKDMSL
T4 sequence (Q9UBU7 whole entry partner): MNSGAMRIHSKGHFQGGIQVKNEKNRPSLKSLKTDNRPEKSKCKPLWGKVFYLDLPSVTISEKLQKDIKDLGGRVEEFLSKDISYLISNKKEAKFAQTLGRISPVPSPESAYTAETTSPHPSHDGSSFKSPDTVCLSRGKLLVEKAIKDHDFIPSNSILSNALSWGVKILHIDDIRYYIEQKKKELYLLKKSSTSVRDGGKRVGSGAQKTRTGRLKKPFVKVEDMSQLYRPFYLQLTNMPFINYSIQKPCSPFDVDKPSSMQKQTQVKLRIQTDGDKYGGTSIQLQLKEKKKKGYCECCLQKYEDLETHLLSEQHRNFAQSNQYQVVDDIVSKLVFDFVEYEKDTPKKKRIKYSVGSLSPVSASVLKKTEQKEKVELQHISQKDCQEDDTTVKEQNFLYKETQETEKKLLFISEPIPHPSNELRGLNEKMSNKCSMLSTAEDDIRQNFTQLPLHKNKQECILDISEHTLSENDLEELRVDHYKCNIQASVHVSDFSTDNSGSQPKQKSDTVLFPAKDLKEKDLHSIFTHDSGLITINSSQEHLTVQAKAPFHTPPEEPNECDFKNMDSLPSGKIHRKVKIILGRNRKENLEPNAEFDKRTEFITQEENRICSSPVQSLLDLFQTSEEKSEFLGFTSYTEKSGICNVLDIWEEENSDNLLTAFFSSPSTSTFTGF
Summary of the method: as §1

DYRK2 = molecular target: T5, DYRK2 (Homo sapiens, UniProt Q92630)
T5 construct: purchased Reaction Biology Corp
T5 sequence (Q92630 1-601): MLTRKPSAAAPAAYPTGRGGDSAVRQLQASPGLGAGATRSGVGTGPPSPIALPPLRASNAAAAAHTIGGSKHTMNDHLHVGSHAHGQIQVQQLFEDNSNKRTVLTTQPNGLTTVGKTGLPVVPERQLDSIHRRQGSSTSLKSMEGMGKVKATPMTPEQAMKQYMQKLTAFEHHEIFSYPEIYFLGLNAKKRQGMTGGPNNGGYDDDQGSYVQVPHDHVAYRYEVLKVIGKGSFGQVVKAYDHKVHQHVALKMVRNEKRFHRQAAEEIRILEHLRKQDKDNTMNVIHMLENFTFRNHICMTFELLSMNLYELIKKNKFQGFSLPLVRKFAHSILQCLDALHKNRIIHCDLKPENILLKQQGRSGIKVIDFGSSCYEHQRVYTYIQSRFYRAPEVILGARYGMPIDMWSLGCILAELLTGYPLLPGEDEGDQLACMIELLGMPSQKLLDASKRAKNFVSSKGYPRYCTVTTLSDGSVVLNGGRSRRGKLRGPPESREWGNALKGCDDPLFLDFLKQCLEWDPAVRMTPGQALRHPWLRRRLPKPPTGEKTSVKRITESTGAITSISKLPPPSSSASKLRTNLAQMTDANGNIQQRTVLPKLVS
Summary of the method: as §1

[1] = read-out: % Enzyme Activity (relative to DMSO controls) Run 1
[2] = read-out: % Enzyme Activity (relative to DMSO controls) Run 2

For C=CC(=O)Nc1cccc(Nc2nc(Nc3ccc(OCCOC)c(F)c3)ncc2F)c1 [Compound 2], the inhibition at 3 µM (DMPK) was -3.25%, the remaining activity at 3 µM (DMPK; [1]) was 104% and the remaining activity at 3 µM (DMPK; [2]) was 102%. The inhibition at 3 µM (DCAMKL2) was 0.18%, the remaining activity at 3 µM (DCAMKL2; [1]) was 100% and the remaining activity at 3 µM (DCAMKL2; [2]) was 99.5%. The inhibition at 3 µM (CDK4/cyclin D1) was 4.07%, the remaining activity at 3 µM (CDK4/cyclin D1; [1]) was 95.6% and the remaining activity at 3 µM (CDK4/cyclin D1; [2]) was 96.3%. It also gave an inhibition at 3 µM (CDC7/DBF4) of -2.02%, a remaining activity at 3 µM (CDC7/DBF4; [1]) of 100% and a remaining activity at 3 µM (CDC7/DBF4; [2]) of 104%. The inhibition at 3 µM (DYRK2) was 38.5%, the remaining activity at 3 µM (DYRK2; [1]) was 61% and the remaining activity at 3 µM (DYRK2; [2]) was 62.1%.
